Measurements published in ChEMBL document CHEMBL4613212, “Insights of synthetic analogues of anti-leprosy agents” (Bioorg Med Chem, 2019).
In brackets after ≈: the same amount, converted by molar mass.

What was measured:
[1] = tested on: Mycobacterium tuberculosis; experiment: Antitubercular activity against Mycobacterium tuberculosis H37Rv ATCC 27294 assessed as growth inhibition at 6.25 ug/ml by microplate alamar blue assay relative to control; type: functional
[2] = tested on: Mycobacterium tuberculosis; experiment: Antitubercular activity against Mycobacterium tuberculosis H37Rv ATCC 27294 assessed as inhibition of [3H]-thymidine incorporation relative to control; type: functional
[3] = Selectivity index, ratio of IC50 for African green monkey Vero cells to MIC for antitubercular activity against Mycobacterium tuberculosis H37Rv; type: toxicity; conditions: Vero cells, read-out: Selectivity Index
[4] = tested on: Mycobacterium tuberculosis; experiment: Antitubercular activity against Mycobacterium tuberculosis H37Rv ATCC 27294 infected in bone marrow macrophages assessed as reduction in growth after 7 days; type: functional; conditions: H37Rv ATCC 27294, 168 h
[5] = tested on: Mycobacterium leprae; experiment: Anti-leprotic activity against Mycobacterium leprae infected in BALB/c weanling mouse assessed as bacteria killing at 150 mg/kg, ip administrated for 60 days and measured after 1 year by most probable number technique analysis relative to control; type: functional
[6] = tested on: Mycobacterium leprae; experiment: Anti-leprotic activity against Mycobacterium leprae infected in BALB/c weanling mouse assessed as bacteria killing at 150 mg/kg, ip administrated for 60 days and measured after 1 year by Spearman-Karber technique analysis relative to control; type: functional
[7] = tested on: Mycobacterium tuberculosis; experiment: Antimycobacterial activity against Mycobacterium tuberculosis H37Rv by BACTEC radiometric growth assay; type: functional
[8] = tested on: Mycobacterium leprae; experiment: Anti-leprotic activity against Mycobacterium leprae infected in BALB/c weanling mouse assessed as bacteria killing at 150 mg/kg, ip administrated cotreated with 0.0001% dietary dapsone for 60 days and measured after 1 year by most probable number technique analysis relative to control; type: functional
[9] = tested on: Mycobacterium leprae; experiment: Anti-leprotic activity against Mycobacterium leprae infected in BALB/c weanling mouse assessed as bacteria killing at 150 mg/kg, ip administrated cotreated with 0.0001% dietary dapsone for 60 days and measured after 1 year by Spearman-Karber technique analysis relative to control; type: functional
[10] = tested on: Mycobacterium leprae; experiment: Antimicrobial activity against Mycobacterium leprae assessed as fractional inhibitory concentration index at 1.5 ug/ml in presence of 0.1 ug/ml rifabutin measured at 4 weeks; type: functional
[11] = tested on: Mycobacterium leprae; experiment: Antimicrobial activity against Mycobacterium leprae assessed as fractional inhibitory concentration index at 1.5 ug/ml in presence of 0.2 ug/ml rifampin measured at 4 weeks; type: functional
[12] = tested on: Mycobacterium leprae; experiment: Antimicrobial activity against Mycobacterium leprae assessed as microbial growth at 1.5 ug/ml in presence of 0.1 ug/ml rifabutin measured at 4 weeks (reference value: 147 +/- 19.1%); type: functional
[13] = tested on: Mycobacterium leprae; experiment: Antimicrobial activity against Mycobacterium leprae assessed as microbial growth at 1.5 ug/ml in presence of 0.1 ug/ml rifampin measured at 4 weeks (reference value: 147 +/- 19.1%); type: functional
[14] = tested on: Mycobacterium leprae; experiment: Antimicrobial activity against Mycobacterium leprae assessed as fractional inhibitory concentration index at 1.5 ug/ml in presence of 0.025 ug/ml KRM-1648 measured at 4 weeks; type: functional
[15] = tested on: Mycobacterium leprae; experiment: Antimicrobial activity against Mycobacterium leprae assessed as microbial growth at 1.5 ug/ml in presence of 0.2 ug/ml rifampin measured at 4 weeks (reference value: 147 +/- 19.1%); type: functional
[16] = tested on: Mycolicibacterium fortuitum; experiment: Antimicrobial activity against Mycobacterium fortuitum incubated for 24 hrs by broth microdilution assay; type: functional
[17] = tested on: Mycobacterium leprae; experiment: Antimicrobial activity against Mycobacterium leprae assessed as microbial growth at 1.5 ug/ml in presence of 0.0125 ug/ml KRM-1648 measured at 4 weeks (reference value: 147 +/- 19.1%); type: functional
[18] = tested on: Mycobacterium leprae; experiment: Antimicrobial activity against Mycobacterium leprae assessed as microbial growth at 1.5 ug/ml in presence of 0.05 ug/ml rifabutin measured at 4 weeks (reference value: 147 +/- 19.1%); type: functional
[19] = tested on: Mycolicibacterium vaccae; experiment: Antimicrobial activity against Mycobacterium vaccae incubated for 24 hrs by broth microdilution assay; type: functional
[20] = tested on: Mycolicibacterium smegmatis; experiment: Antimicrobial activity against Mycobacterium smegmatis incubated for 24 hrs by broth microdilution assay; type: functional
[21] = tested on: Mycolicibacterium aurum; experiment: Antimicrobial activity against Mycobacterium aurum incubated for 24 hrs by broth microdilution assay; type: functional
[22] = tested on: Mycobacterium leprae; experiment: Antimicrobial activity against Mycobacterium leprae assessed as microbial growth at 1.5 ug/ml in presence of 0.025 ug/ml KRM-1648 measured at 4 weeks (reference value: 147 +/- 19.1%); type: functional
[23] = tested on: Mycobacterium leprae; experiment: Antimicrobial activity against Mycobacterium leprae assessed as fractional inhibitory concentration index at 0.1875 ug/ml in presence of 0.05 ug/ml rifabutin measured at 4 weeks; type: functional
[24] = tested on: Mycobacterium leprae; experiment: Antimicrobial activity against Mycobacterium leprae assessed as fractional inhibitory concentration index at 0.375 ug/ml in presence of 0.2 ug/ml rifampin measured at 4 weeks; type: functional
[25] = tested on: Mycobacterium leprae; experiment: Antimicrobial activity against Mycobacterium leprae assessed as microbial growth at 0.375 ug/ml in presence of 0.2 ug/ml rifampin measured at 4 weeks (reference value: 147 +/- 19.1%); type: functional
[26] = tested on: Mycobacterium leprae; experiment: Antimicrobial activity against Mycobacterium leprae assessed as microbial growth at 0.1875 ug/ml in presence of 0.05 ug/ml rifabutin measured at 4 weeks (reference value: 147 +/- 19.1%); type: functional
[27] = tested on: Mycobacterium leprae; experiment: Antimicrobial activity against Mycobacterium leprae assessed as microbial growth at 0.375 ug/ml in presence of 0.1 ug/ml rifampin measured at 4 weeks (reference value: 147 +/- 19.1%); type: functional
[28] = tested on: Mycobacterium leprae; experiment: Antimicrobial activity against Mycobacterium leprae assessed as microbial growth at 0.1875 ug/ml in presence of 0.0062 ug/ml KRM-1648 measured at 4 weeks (reference value: 147 +/- 19.1%); type: functional
[29] = tested on: Mycobacterium leprae; experiment: Antimicrobial activity against Mycobacterium leprae assessed as microbial growth at 0.1875 ug/ml in presence of 0.025 ug/ml rifabutin measured at 4 weeks (reference value: 147 +/- 19.1%); type: functional
[30] = tested on: Mycobacterium leprae; experiment: Antimicrobial activity against Mycobacterium leprae assessed as microbial growth at 0.1875 ug/ml in presence of 0.0125 ug/ml KRM-1648 measured at 4 weeks (reference value: 147 +/- 19.1%); type: functional
[31] = tested on: Mycobacterium leprae; experiment: Antimicrobial activity against Mycobacterium leprae assessed as fractional inhibitory concentration index at 0.1875 ug/ml in presence of 0.0125 ug/ml KRM-1648 measured at 4 weeks; type: functional
[32] = tested on: Mycolicibacterium smegmatis; experiment: Antimycobacterial activity against DDS sensitive Mycobacterium smegmatis ATCC 607 […]; type: functional
[33] = tested on: Mycobacterium leprae; experiment: Anti-leprotic activity against Mycobacterium leprae infected in BALB/c mouse assessed as time delay in bacterial multiplication in footpad at 0.003 g/100g of diet administered via feed starting 60 or 75 day post infection up to 90 days by Shepard's kinetic method; type: functional
[34] = tested on: Mycolicibacterium smegmatis; experiment: Antimycobacterial activity against DDS resistant Mycobacterium smegmatis ATCC 607 […]; type: functional

With `Clc1nc(-c2ccco2)c2ncn(Cc3ccccc3)c2n1` as the compound, how does the inhibition at 6.25 µg/mL [1] read?
The inhibition at 6.25 µg/mL was over 90%.

What about the “inhibition (INH)” value [2] of the same compound?
Its value is 27%.

What about the selectivity ratio [3] of the same compound?
The selectivity ratio was 10.6.

What about the EC99 [4] of the same compound?
Its EC99 is 8 µg/mL.

Which Activity [5] does the source give for `CN[C@@H]1[C@H](O[C@H]2[C@H](O[C@H]3[C@H](O)[C@@H](O)[C@H](N=C(N)N)[C@@H](O)[C@@H]3N=C(N)N)O[C@@H](C)[C@]2(O)C=O)O[C@@H](CO)[C@H](O)[C@H]1O` [STREPTOMYCIN] here?
The Activity was 97.2%.

What about the Activity [6] of the same compound?
The Activity was 97%.

What about the MIC [7] of the same compound?
The MIC was 2 µg/mL (≈ 3.44 µM).

What about the Activity [8] of the same compound?
The Activity was 95.7%.

And the Activity [9]?
The Activity was 95%.

For `O=C(O)c1cn(C2CC2)c2cc(N3CCNCC3)c(F)cc2c1=O` [CIPROFLOXACIN], which “fractional inhibitory concentration index (FICI)” value [10] is on record?
Its value is 1.

What about the “fractional inhibitory concentration index (FICI)” value [11] of the same compound?
The value was 1.

And the Activity [12]?
Its Activity is 0%.

What about the Activity [13] of the same compound?
The Activity was 28%.

And the “fractional inhibitory concentration index (FICI)” value [14]?
Its value is 1.

What about the Activity [15] of the same compound?
Its Activity is 0%.

What about the MIC [16] of the same compound?
Its MIC is 0.05 µg/mL (≈ 0.151 µM).

What about the Activity [17] of the same compound?
Its Activity is 19%.

What about the Activity [18] of the same compound?
The Activity was 21%.

What about the MIC [19] of the same compound?
Its MIC is 0.4 µg/mL (≈ 1.21 µM).

And the MIC [20]?
Its MIC is 0.8 µg/mL (≈ 2.41 µM).

What about the MIC [21] of the same compound?
The MIC was under 0.05 µg/mL.

What about the Activity [22] of the same compound?
The Activity was 0%.

Which results are given for `C[C@H]1COc2c(N3CCN(C)CC3)c(F)cc3c(=O)c(C(=O)O)cn1c23.C[C@H]1COc2c(N3CCN(C)CC3)c(F)cc3c(=O)c(C(=O)O)cn1c23.O` [LEVOFLOXACIN]?
fractional inhibitory concentration index (FICI) [23]: 0.5; fractional inhibitory concentration index (FICI) [24]: 1; Activity [25]: 0%; Activity [26]: 0%; Activity [27]: 87%; Activity [28]: 115%; Activity [29]: 133%; Activity [30]: 0%; fractional inhibitory concentration index (FICI) [31]: 0.5

Which MIC [32] does the source give for `Nc1ccc(S(=O)(=O)c2cccc(N)c2)cc1` here?
Its MIC is 24.2 µg/mL (≈ 97.5 µM).

And the Time [33]?
The Time was 133 days.

And the MIC [34]?
Its MIC is 1300 µg/mL (≈ 5240 µM).
